Data on 32 molecules can be found in patent publication US20020169101A1, “Treatment of sexual dysfunction” (priority 1999, published 2002).

The IC50 is the concentration that gives 50% inhibition. The low end stands for inhibition by little substance, the high end for a need for much substance.

One experiment has as its target T1, human GRP receptor (BB2) (Homo sapiens, UniProt P30550).
T1 construct: expressed in transfected cells; membranes prepared from the cells
The experiment is described as follows: BB2 binding assay ([125I][Tyr4]bombesin displacement, CHO-K1 membranes). How it is done: (§1) In the following experiments, measurement of BB1 and BB2 binding was as follows. CHO-K1 cells stably expressing cloned human NMB (for (BB1 assay) and GRP receptors (for BB2 assay) were routinely grown in Ham's F12 culture medium supplemented with 10% foetal calf serum and 2 mM glutamine. For binding experiments, cells were harvested by trypsinization, and stored frozen at −70° C. in Ham's F12 culture medium containing 5% DMSO until required. On the day of use, cells were thawed rapidly, diluted with an excess of culture medium, and centrifuged for 5 minutes at 2000 g. Cells were resuspended in 50 mM Tris-HCl assay buffer (pH 7.4 at 21° C., containing 0.02% BSA, 40 μg/mL bacitracin, 2 μg/mL chymostatin, 4 μg/mL leupeptin, and 2 μM phosphoramidon), counted, and polytronned (setting 5, 10 sec) before centrifuging for 10 minutes at 28,000 g. The final pellet was resuspended in assay buffer to a final cell concentration of 1.5×10^5/mL. For binding assays, […] aliquots of membranes were incubated with [^125I][Tyr^4]bombesin (<0.1 nM) in the presence and absence of test compounds (final assay volume 250 μL) for 60 minutes and 90 minutes for NMB and GRP receptors, respectively. Nonspecific binding was defined by 1 μM bombesin. Assays were terminated by rapid filtration under vacuum onto Whatman GF/C filters presoaked in 0.2% PEI for >2 hours, and washed 50 mM Tris-HCl (pH 6.9 at 21° C.; 6×1 mL). Radioactivity bound was determined using a gamma counter.
(§2) All competition data was analysed using nonlinear regression utilizing iterative curve-plotting procedures in Prism® (GraphPad Software Inc., San Diego, USA). IC50 values were corrected to Ki values using the Cheng-Prusoff equation (Cheng Y., Prusoff W. H., Biochem. Pharmacol. 22: 3099-3108, 1973). obtained are listed in Table 1.

The target in the next experiment is T2, human NMB receptor (BB1) (Homo sapiens, UniProt P28336).
T2 construct: expressed in transfected cells; membranes prepared from the cells
As to the kind of experiment: BB1 binding assay ([125I][Tyr4]bombesin displacement, CHO-K1 membranes). As to the method:
as §1, §2

Where [1] appears, read: second 'TABLE 4', N-terminal urethane derivatives of Intermediate III-7.
The mark [2] stands for this setting: Table 3, N-acyl derivatives of Intermediate III-7.
The mark [3] stands for this setting: binding studies to the bombesin receptors.

Read-outs that look alike come from different tables or passages of the source.

T1 sequence (P30550 whole entry): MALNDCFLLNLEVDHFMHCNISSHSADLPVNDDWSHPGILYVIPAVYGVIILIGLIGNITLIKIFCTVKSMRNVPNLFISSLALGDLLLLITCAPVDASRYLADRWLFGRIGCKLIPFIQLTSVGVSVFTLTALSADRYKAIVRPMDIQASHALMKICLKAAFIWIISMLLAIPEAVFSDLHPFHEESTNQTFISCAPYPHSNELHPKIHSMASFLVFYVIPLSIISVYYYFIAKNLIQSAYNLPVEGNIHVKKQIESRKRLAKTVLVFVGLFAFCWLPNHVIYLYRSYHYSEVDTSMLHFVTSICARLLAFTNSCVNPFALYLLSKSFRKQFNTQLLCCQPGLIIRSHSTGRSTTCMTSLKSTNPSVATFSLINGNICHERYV
T2 sequence (P28336 whole entry): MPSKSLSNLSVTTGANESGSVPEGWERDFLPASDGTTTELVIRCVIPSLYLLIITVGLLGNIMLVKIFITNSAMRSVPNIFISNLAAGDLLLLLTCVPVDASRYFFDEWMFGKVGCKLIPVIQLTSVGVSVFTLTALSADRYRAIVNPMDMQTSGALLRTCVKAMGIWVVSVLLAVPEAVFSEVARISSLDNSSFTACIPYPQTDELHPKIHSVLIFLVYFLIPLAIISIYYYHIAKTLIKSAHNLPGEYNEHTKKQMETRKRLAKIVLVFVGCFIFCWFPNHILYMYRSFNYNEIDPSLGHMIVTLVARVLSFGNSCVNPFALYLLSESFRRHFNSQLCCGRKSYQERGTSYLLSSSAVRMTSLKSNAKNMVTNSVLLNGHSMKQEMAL

Turning to `C[C@@](Cc1c[nH]c2ccccc12)(NC(=O)OCc1ccc([N+](=O)[O-])cc1)C(=O)NCC1(c2ccccn2)CCCCC1` [Example 96, {(S)-2-(1H-Indol-3-yl)-1-methyl-1-[(1-pyridin-2-yl-cyclohexylmethyl)-carbamoyl]-ethyl}-carbamic acid 4-nitro-benzyl ester], the concentration for half-maximal inhibition (IC50) was determined as 463 nM on human GRP receptor (BB2) (setting [1]) and 41 nM on human NMB receptor (BB1) (setting [1]).
On the same counts, the results for `Cc1cccc(COC(=O)N[C@@](C)(Cc2c[nH]c3ccccc23)C(=O)NCC2(c3ccccn3)CCCCC2)c1` [Example 105, {(S)-2-(1H-Indol-3-yl)-1-methyl-1-[(1-pyridin-2-yl-cyclohexylmethyl)-carbamoyl]-ethyl}-carbamic acid 3-methyl-benzyl ester] are > 10000 nM and 841 nM.
As for `C[C@@](Cc1c[nH]c2ccccc12)(NC(=O)c1ccc2ncsc2c1)C(=O)NCC1(c2ccccn2)CCCCC1` [Example 72, Benzothiazole-6-carboxylic acid {(S)-2-(1H-indol-3-yl)-1-methyl-1-[(1-pyridin-2-yl-cyclohexylmethyl)-carbamoyl]-ethyl}-amide], the IC50 worked out at 1490 nM at human GRP receptor (BB2) (setting [2]) and 897 nM at human NMB receptor (BB1) (setting [2]).
The like results for `Cc1ccsc1C(=O)N[C@@](C)(Cc1c[nH]c2ccccc12)C(=O)NCC1(c2ccccn2)CCCCC1` [Example 74, 3-Methyl-thiophene-2-carboxylic acid {(S)-2-(1H-indol-3-yl)-1-methyl-1-[(1-pyridin-2-yl-cyclohexylmethyl)-carbamoyl]-ethyl}-amide] were, in that order, > 10000 nM and 744 nM.
The like results for `C[C@@](Cc1c[nH]c2ccccc12)(NC(=O)c1ccc([N+](=O)[O-])cc1)C(=O)NCC1(c2ccccn2)CCCCC1` [Example 36, N—{(S)-2-(1H-Indol-3-yl)-1-methyl-1-[(1-pyridin-2-yl-cyclohexylmethyl)-carbamoyl]-ethyl}-4-nitro-benzamide] were, in that order, > 10000 nM and 343 nM.
The like results for `C[C@@](Cc1c[nH]c2ccccc12)(NC(=O)c1cccc2[nH]ccc12)C(=O)NCC1(c2ccccn2)CCCCC1` [Example 68, 1H-Indole-4-carboxylic acid {(S)-2-(1H-indol-3-yl)-1-methyl-1-[(1-pyridin-2-yl-cyclohexylmethyl)-carbamoyl]-ethyl}-amide] were, in that order, > 10000 nM and 4500 nM.
As to `C[C@@](Cc1c[nH]c2ccccc12)(NC(=O)c1ccc2[nH]ccc2c1)C(=O)NCC1(c2ccccn2)CCCCC1` [Example 67, 1H-Indole-5-carboxylic acid {(S)-2-(1H-indol-3-yl)-1-methyl-1-[(1-pyridin-2-yl-cyclohexylmethyl)-carbamoyl]-ethyl}-amide], the IC50 was > 10000 nM at human GRP receptor (BB2) (setting [2]) and 1880 nM at human NMB receptor (BB1) (setting [2]).
For the molecule `Cc1ccccc1COC(=O)N[C@@](C)(Cc1c[nH]c2ccccc12)C(=O)NCC1(c2ccccn2)CCCCC1` [Example 97, {(S)-2-(1H-Indol-3-yl)-1-methyl-1-[(1-pyridin-2-yl-cyclohexylmethyl)-carbamoyl]-ethyl}-carbamic acid 2-methyl-benzyl ester], the half-inhibitory concentration (IC50) at human GRP receptor (BB2) (setting [1]) is > 10000 nM; at human NMB receptor (BB1) (setting [1]) it was 751 nM.
Turning to `Cc1cccc(C(=O)N[C@@](C)(Cc2c[nH]c3ccccc23)C(=O)NCC2(c3ccccn3)CCCCC2)c1` [Example 43, N—{(S)-2-(1H-Indol-3-yl)-1-methyl-1-[(1-pyridin-2-yl-cyclohexylmethyl)-carbamoyl]-ethyl}-3-methyl-benzamide], the IC50 at human GRP receptor (BB2) (setting [2]) was > 10000 nM; on human NMB receptor (BB1) (setting [2]), 2350 nM.
The like results for “(S)-3-(1H-Indol-3-yl)-2-methyl-N-(1-pyridin-2-yl-cyclohexylmethyl)-2-(2-p-tolyl-ethanoylamino)-propionamide [Example 51]” were, in that order, > 10000 nM and 944 nM.
As for `COc1ccc(C2(CNC(=O)[C@](C)(Cc3c[nH]c4ccccc34)NC(=O)c3cc4ccccc4[nH]3)CCCCC2)nc1` [Example 86, 1H-Indole-2-carboxylic Acid ((S)-2-(1H-indol-3-yl)-1-{[1-(5-methoxy-pyridin-2-yl)-cyclohexylmethyl]-carbamoyl}-1-methyl-ethyl)-amide], the results for the concentration for half-maximal inhibition (IC50) at human GRP receptor (BB2) (setting [3]) and on human NMB receptor (BB1) (setting [3]) were 119 nM and 11 nM, respectively.
As to `C[C@@](Cc1c[nH]c2ccccc12)(NC(=O)c1ccccc1)C(=O)NCC1(c2ccccn2)CCCCC1` [Example 32, N—{(S)-2-(1H-Indol-3-yl)-1-methyl-1-[(1-pyridin-2-yl-cyclohexylmethyl)-carbamoyl]-ethyl}-benzamide], the IC50 on human GRP receptor (BB2) (setting [2]) is > 10000 nM.
As to `CC(Cc1c[nH]c2ccccc12)(NS(=O)(=O)c1cc(Cl)sc1Cl)C(=O)NCC1(c2ccccn2)CCCCC1` (stereo not shown) [Example 157], on human GRP receptor (BB2), the IC50 was > 10000 nM.
For `Cc1ccc(C(=O)N[C@@](C)(Cc2c[nH]c3ccccc23)C(=O)NCC2(c3ccccn3)CCCCC2)cc1` [Example 33, N—{(S)-2-(1H-Indol-3-yl)-1-methyl-1-[(1-pyridin-2-yl-cyclohexylmethyl)-carbamoyl]-ethyl}-4-methyl-benzamide], at human GRP receptor (BB2) (setting [2]), the half-inhibitory concentration (IC50) was > 10000 nM.
Turning to `Cc1noc(C)c1S(=O)(=O)N[C@@](C)(Cc1c[nH]c2ccccc12)C(=O)NCC1(c2ccccn2)CCCCC1` [Example 136], the concentration for half-maximal inhibition (IC50) at human NMB receptor (BB1) is 515 nM.
At human NMB receptor (BB1), `COC(=O)c1sccc1S(=O)(=O)N[C@@](C)(Cc1c[nH]c2ccccc12)C(=O)NCC1(c2ccccn2)CCCCC1` [Example 140] had an IC50 of 167 nM.
As for `C[C@@](Cc1c[nH]c2ccccc12)(NS(=O)(=O)c1ccc(OC(F)(F)F)cc1)C(=O)NCC1(c2ccccn2)CCCCC1` [Example 151], on human NMB receptor (BB1), the IC50 worked out at 635 nM.
For the molecule `C[C@@](Cc1c[nH]c2ccccc12)(NC(=O)OCc1ccc(Cl)cc1Cl)C(=O)NCC1(c2ccccn2)CCCCC1` [Example 104, {(S)-2-(1H-Indol-3-y1)-1-methyl-1-[(1-pyridin-2-yl-cyclohexylmethyl)-carbamoyl]-ethyl}-carbamic acid 2,4-dichloro-benzyl ester], on human NMB receptor (BB1) (setting [1]), the IC50 is 450 nM.
Molecule `C[C@@](Cc1c[nH]c2ccccc12)(NC(=O)c1ccccn1)C(=O)NCC1(c2ccccn2)CCCCC1` [Example 57] came in with a half-maximal inhibitory concentration (IC50) at human NMB receptor (BB1) (setting [2]) of 3710 nM.
As for `C[C@@](Cc1c[nH]c2ccccc12)(NS(=O)(=O)c1ccc(C#N)cc1)C(=O)NCC1(c2ccccn2)CCCCC1` [Example 133], the IC50 on human NMB receptor (BB1) was 766 nM.
Consider `C[C@@](Cc1c[nH]c2ccccc12)(NS(=O)(=O)c1cccc(C#N)c1)C(=O)NCC1(c2ccccn2)CCCCC1` [Example 143], for which the IC50 at human NMB receptor (BB1) stood at 460 nM.
Same read-out and setting: as for `COc1ccc(S(=O)(=O)N[C@@](C)(Cc2c[nH]c3ccccc23)C(=O)NCC2(c3ccccn3)CCCCC2)cc1OC` [Example 132], the figure is 608 nM; as for `C[C@@](Cc1c[nH]c2ccccc12)(NS(=O)(=O)c1ccc(C(F)(F)F)cc1)C(=O)NCC1(c2ccccn2)CCCCC1` [Example 127], 553 nM; as for `Cc1nc(S(=O)(=O)N[C@@](C)(Cc2c[nH]c3ccccc23)C(=O)NCC2(c3ccccn3)CCCCC2)cn1C` [Example 144], 2480 nM.
The molecule `C[C@@](Cc1c[nH]c2ccccc12)(NC(=O)c1ccco1)C(=O)NCC1(c2ccccn2)CCCCC1` [Example 60] registered an IC50 at human NMB receptor (BB1) (setting [2]) of 1200 nM.
For the molecule `C[C@@](Cc1c[nH]c2ccccc12)(NS(=O)(=O)c1cnc(Cl)c(Br)c1)C(=O)NCC1(c2ccccn2)CCCCC1` [Example 161], the IC50 on human NMB receptor (BB1) came out at 187 nM.
As for “Dimethylamino-N—{(S)-2-(1H-indol-3-yl)-1-methyl-1-[(1-pyridin-2-yl-cyclohexyl-methyl)-carbamoyl]-ethyl}-benzamide [Example 42]”, the half-inhibitory concentration (IC50) at human GRP receptor (BB2) (setting [2]) was > 10000 nM.
The molecule `CCCCc1ccc(S(=O)(=O)N[C@@](C)(Cc2c[nH]c3ccccc23)C(=O)NCC2(c3ccccn3)CCCCC2)cc1` [Example 168] displayed an IC50 on human NMB receptor (BB1) of 492 nM.
On human NMB receptor (BB1), `C[C@@](Cc1c[nH]c2ccccc12)(NS(=O)(=O)c1ccccc1C#N)C(=O)NCC1(c2ccccn2)CCCCC1` [Example 134] registered a half-inhibitory concentration (IC50) of 408 nM.
As to `C[C@@](Cc1c[nH]c2ccccc12)(NC(=O)OCc1ccc2ncccc2c1)C(=O)NCC1(c2ccccn2)CCCCC1` [Example 110, {(S)-2-(1H-Indol-3-y1)-1-methyl-1-[(1-pyridin-2-yl-cyclohexylmethyl)-carbamoyl]-ethyl}-carbamic acid quinolin-6-ylmethyl ester], the IC50 on human NMB receptor (BB1) (setting [1]) was determined as 171 nM.
In the case of `C[C@@](Cc1c[nH]c2ccccc12)(NS(=O)(=O)Cc1ccccc1[N+](=O)[O-])C(=O)NCC1(c2ccccn2)CCCCC1` [Example 142], the IC50 on human NMB receptor (BB1) is 430 nM.
On the same count and under the same terms, then `C[C@@](Cc1c[nH]c2ccccc12)(NS(=O)(=O)c1ccc(Cl)c(C(F)(F)F)c1)C(=O)NCC1(c2ccccn2)CCCCC1` [Example 166], with 627 nM.
